Test results from patent US7026343B2, “Pharmacologic inhibition of Myc function” (University of Pittsburgh - of the Commonwealth System of …, priority 2002, dated 2006).

Key:
Rat1a-c-Myc cells [1] = test: In vivo tumor growth of pre-treated Rat1a-c-Myc cells in nude mice; details: cells exposed 3 days to compound, then inoculated subcutaneously; no further compound
Procedure: All growth curves were performed in 12-well tissue culture plates as previously described (Yin et al., (1999b)). Rat1a-neo, Rat1a-c-Myc, and TGR-1 fibroblasts were seeded at an initial density of 2×10^3 cells/well whereas HO15.19 c-Myc KO cells were seeded at 5×10^3 cells/well. The following day, each compound, or DMSO vehicle alone, was added to the indicated final concentrations. Fresh medium and compound were added every 3–4 days. Cells were trypsinized and manually counted at the indicated times. […] For in vivo assays, Rat1a-c-Myc cells were grown to approximately 50% confluency. Fresh medium plus the indicated compounds, or DMSO vehicle alone, were then added to cells for an additional 3 days. At the end of this time, none of the cultures contained fewer than […] apoptotic cells as determined by trypan blue staining and TUNEL assays. The cells were then washed twice in PBS, trypsinized and resuspended in a minimal volume of fresh medium containing the same concentration of compound. In total, 2×10^7 cells were then inoculated subcutaneously into the flanks of nude mice (five animals per group) and no additional compound was administered for the duration of the experiment. Tumor growth was monitored weekly and the average tumor volume ([…].) was calculated as previously described (Yin X. Y., Grove E., Rogulski K. and Prochownik E. V., (2002), J. Biol. Chem., 277:19998–20010).
Rat1a-c-Myc cells form rapidly growing tumors in nude mice (Yin et al., 1999b). […] Rat1a-c-Myc cells were therefore exposed to the indicated Myc-Max-specific compounds for 3 days at the concentrations shown in FIG. 4. […] These cells were then inoculated into nude mice and monitored for tumor formation. Rat1a-c-Myc cells that had been incubated for 3 days in DMSO vehicle only served as a positive control.
Rat1a-c-Myc cells were exposed to the indicated Myc-Max-specific compounds for 3 days at the concentrations shown in FIG. 4, and then inoculated subcutaneously into the flanks of nude mice (five animals per group). Based on trypan blue staining, >95% of the inoculated cells were viable at the time of inoculation. Tumor growth was monitored and recorded weekly. Each point indicates the average tumor volume among the groups ±1 s.e.

Rat1a-c-Myc cells [2] = test: Cell cycle profiles by propidium iodide flow cytometry; format: cell-based, rat; details: 24 h, concentrations of FIG. 4
Procedure: This assay was performed as previously described (Nesbit C. E., Grove L. E., Yin X. Y. and Prochownik E. V. (1998), Cell Growth Differ., 9:731–741; Nesbit C. E., Tersak J. M., Grove L. E., Drzal A., Choi H. and Prochownik E. V. (2000), Oncogene, 19:3200–3212; and Yin X. Y., Grove L., Datta N., Katula K., Long M. W. and Prochownik E. V. (2001), Cancer Res., 61:6487–6493). Cell cycle profiles were performed on propidium iodide-stained nuclei as previously described (Yin et al., (1999a)) using a Becton-Dickinson FACStar flow cytometer. A total of 2×10^4 cells were analyzed in triplicate for each point and quantitation was performed using single histogram statistics.
In contrast to c-Myc's promotion of cell cycle progression, its inhibition halts this process and results in an accumulation of cells in G0/G1 (Freytag S. O. (1988), Mol. Cell. Biol., 8:1614–1624; Prochownik et al., 1988 and deAlboran et al., 2001). Therefore, it was asked whether any of the above compounds could affect the cell cycle profiles of otherwise actively proliferating cells. Rat1a-c-Myc cells were plated at low concentrations and grown for 2 additional days until attaining approximately 30% confluency. The cells were then re-fed with fresh medium alone, medium containing DMSO only, or medium containing each of the Myc-Max-specific compounds. After 24 h, cells were harvested and cell cycle profiles were generated by flow cytometry following propidium iodide staining (Yin et al., 2001). […] In contrast, all of the compounds tested caused significant increases in the fraction of the G0/G1 population.

Row | SMILES | inhibition of in vivo tumor growth (Rat1a-c-Myc cells [1]) | % of cells in G0/G1 (Rat1a-c-Myc cells [2]) | % of cells in G2/M (Rat1a-c-Myc cells [2]) | % of cells in S (Rat1a-c-Myc cells [2])
1 | O=C1CSC(=O)N1CC(O)Cn1c2ccc(Cl)cc2c2cc(Cl)ccc21 (stereo not shown) [#10074A4, 3-[3-(3,6-dichloro-carbazol-9-yl)-2-hydroxy-propyl]-thiazolidine-2,4-dione] | inhibition of in vivo tumor growth | 68.7% | 9.8% | 21.5%
2 | CCN(CC)C1CC(=O)N(c2cccc(Cl)c2)C1=O (stereo not shown) [#10075, 1-(3-Chloro-phenyl)-3-diethylamino-pyrrolidine-2,5-dione] |  | 65.1% | 10.7% | 24.2%
3 | Cc1ccc2c(c1)C(=NNc1nc(C)c(C(=O)Nc3cccc([N+](=O)[O-])c3)s1)CC(c1ccccc1)O2 (stereo not shown) [#10050, 4-methyl-2-[N′-(6-methyl-2-phenyl-chroman-4-ylidene)-hydrazino]-thiazole-5-carboxylic acid (3-nitrophenyl)-amide] | inhibition of in vivo tumor growth | 58.7% | 11.7% | 29.6%
4 | O=[N+]([O-])c1ccc(Nc2ccccc2-c2ccccc2)c2nonc12 [#10074G4, biphenyl-2-yl-(7-nitro-benzo[1,2,5]oxadiazol-4-yl)-amine] |  | 53.9% | 7.4% | 38.7%
5 | CCc1ccc(C=C2SC(=S)NC2=O)cc1 [#10058, 5-(4-ethyl-benzylidene)-2-thioxothiazolidin-4-one] | inhibition of in vivo tumor growth | 62.6% | 13.7% | 23.7%
6 | CCCOc1ccc(N2C(=O)CC(N3CCC(C(=O)O)CC3)C2=O)cc1 (stereo not shown) [#10031, 1-[2,5-dioxo-1-(4-propoxy-phenyl)-pyrrolidin-3-yl]-piperidine-4-carboxylic acid] |  | 60.9% | 5.2% | 33.9%
7 | O=[N+]([O-])c1ccc(CCNC2CC3CCC2C3)cc1 (stereo not shown) [#10009, bicyclo[2.2.1]hept-2-yl-[2-(4-nitro-phenyl)-ethyl]-amine] | inhibition of in vivo tumor growth | 66.3% | 10.6% | 23.1%
